Test results published in patent US20190210973A1, “COMPOUNDS AND METHODS FOR TREATMENT OF CYSTIC FIBROSIS” (The Curators of the University of Missouri, priority 2018, published 2019).
Several values for one entry are separate records, joined by “and”; a condition that tells them apart may be missing. Equal values may be shown once.

Columns and labels:
delF508-CFTR = delF508-CFTR (Homo sapiens, UniProt P13569, DEL508-508); test: Patch-clamp recording of delF508-CFTR currents in excised inside-out patches of transfected CHO cells; type: cell-based
From the text: Patch-clamp is considered the gold standard for assessing directly ion channel function in real time. By attaching a glass microelectrode on the surface of a cell, it is possible to record the currents generated by channels proteins that are present in this tiny “patch” of cell membranes. Since millions of ions pass through a single ion channel pore per second, the resulting microscopic currents from a single channel protein molecule can be detected with modem patch-clamp amplifiers. As ion channels (a conductor in electricity term) are arranged in parallel in the cell membrane, it is also possible to assay a group of ion channels by monitoring macroscopic currents representing the sum of currents from individual channels. Microscopic recordings allow artisans to examine exquisitely the effects of compounds on the Po and kinetic parameters of CFTR channels; whereas macroscopic recordings provide an assay not only to quantify the overall effects of compounds on N×Po×i, but also monitor the stability of the CFTR currents in real time.
Chinese hamster ovary (CHO) cells were grown at 37° C. in Dulbecco's modified Eagle's medium supplemented with 10% fetal bovine serum. Cells were subcultured into 35-mm tissue culture dishes 1 day before transfection. PolyFect transfection reagent (QIAGEN) was used to cotransfect CFTR cDNA and pEGFP-C3 (Takara Bio Inc.), which encodes green fluorescence proteins, into CHO cells. After transfection, cells were incubated at 27° C. for at least 2 days before electrophysiological experiments were performed.
Glass chips carrying the transfected cells were transferred to a chamber located on the stage of an inverted microscope (IX51; Olympus). Borosilicate capillary glasses were used to make patch pipettes using a two-stage micropipette puller (PP-81, Narishige, Japan). The pipettes were polished with a homemade microforge to a resistance of 2-4 MΩ in the bath solution. Once the seal resistance reached >40 GΩ, membrane patches were excised into an inside-out mode. Subsequently, the pipette was moved to the outlet of a three-barrel perfusion system and perfused with 25 IU PKA and 2 mM ATP until the CFTR current reached a steady state. A patch-clamp amplifier (EPC10, HEKA, Germany) was used to record electrophysiological data at room temperature. The data were filtered online at 100 Hz with an eight-pole Bessel filter (LPF-8; Warner Instruments) and digitized to a computer at a sampling rate of 500 Hz. […] Membrane potential was held at −30 or −50 mV for all recordings.
Disease-causing mutations (G551D and delF508) were made with PCR-based site-directed mutagenesis using the Pfu Ultra II (Agilent Technologies). […] The cDNA constructs of CFTR (G551D and delF508) were co-transfected with peGFP-C3 (Takara Bio Inc.) encoding the green fluorescent protein into CHO cells using PolyFect transfection reagent (QIAGEN). The transfected cells were transferred into 35 mm tissue culture dishes containing one layer of sterilized glass chips for cells to grow on. The transfected cells were incubated at 27° C. for 2-7 days before electrophysiological experiments were performed.
All patch-clamp experiments were carried out in the excised inside-out configuration. Micropipettes made of borosilicate capillary glass were pulled with a two-stage vertical puller (Narishige) and then fire-polished with a homemade microforge to reach a pipet resistance of 2-4 MΩ when the pipettes were filled with a standard inside-out pipet solution that contains: 140 mM N-Methyl-D-glucamine-Cl (NMDG-Cl), 2 mM MgCl2, 5 mM CaCl2) and 10 mM HEPES, adjusted to pH 7.4 with NMDG.

G551D-CFTR = biological target: T1, G551D-CFTR (Homo sapiens, UniProt P13569, G551D); settings: cited from earlier work
T1 construct: The cDNA constructs of CFTR (G551D and delF508) were co-transfected with peGFP-C3; expressed in transfected cells; host or cells: CHO cells (ATCC), transient co-transfection with pEGFP-C3 (GFP as a separate marker, not fused)
T1 sequence (P13569 whole entry G551D, the tested form may be a part): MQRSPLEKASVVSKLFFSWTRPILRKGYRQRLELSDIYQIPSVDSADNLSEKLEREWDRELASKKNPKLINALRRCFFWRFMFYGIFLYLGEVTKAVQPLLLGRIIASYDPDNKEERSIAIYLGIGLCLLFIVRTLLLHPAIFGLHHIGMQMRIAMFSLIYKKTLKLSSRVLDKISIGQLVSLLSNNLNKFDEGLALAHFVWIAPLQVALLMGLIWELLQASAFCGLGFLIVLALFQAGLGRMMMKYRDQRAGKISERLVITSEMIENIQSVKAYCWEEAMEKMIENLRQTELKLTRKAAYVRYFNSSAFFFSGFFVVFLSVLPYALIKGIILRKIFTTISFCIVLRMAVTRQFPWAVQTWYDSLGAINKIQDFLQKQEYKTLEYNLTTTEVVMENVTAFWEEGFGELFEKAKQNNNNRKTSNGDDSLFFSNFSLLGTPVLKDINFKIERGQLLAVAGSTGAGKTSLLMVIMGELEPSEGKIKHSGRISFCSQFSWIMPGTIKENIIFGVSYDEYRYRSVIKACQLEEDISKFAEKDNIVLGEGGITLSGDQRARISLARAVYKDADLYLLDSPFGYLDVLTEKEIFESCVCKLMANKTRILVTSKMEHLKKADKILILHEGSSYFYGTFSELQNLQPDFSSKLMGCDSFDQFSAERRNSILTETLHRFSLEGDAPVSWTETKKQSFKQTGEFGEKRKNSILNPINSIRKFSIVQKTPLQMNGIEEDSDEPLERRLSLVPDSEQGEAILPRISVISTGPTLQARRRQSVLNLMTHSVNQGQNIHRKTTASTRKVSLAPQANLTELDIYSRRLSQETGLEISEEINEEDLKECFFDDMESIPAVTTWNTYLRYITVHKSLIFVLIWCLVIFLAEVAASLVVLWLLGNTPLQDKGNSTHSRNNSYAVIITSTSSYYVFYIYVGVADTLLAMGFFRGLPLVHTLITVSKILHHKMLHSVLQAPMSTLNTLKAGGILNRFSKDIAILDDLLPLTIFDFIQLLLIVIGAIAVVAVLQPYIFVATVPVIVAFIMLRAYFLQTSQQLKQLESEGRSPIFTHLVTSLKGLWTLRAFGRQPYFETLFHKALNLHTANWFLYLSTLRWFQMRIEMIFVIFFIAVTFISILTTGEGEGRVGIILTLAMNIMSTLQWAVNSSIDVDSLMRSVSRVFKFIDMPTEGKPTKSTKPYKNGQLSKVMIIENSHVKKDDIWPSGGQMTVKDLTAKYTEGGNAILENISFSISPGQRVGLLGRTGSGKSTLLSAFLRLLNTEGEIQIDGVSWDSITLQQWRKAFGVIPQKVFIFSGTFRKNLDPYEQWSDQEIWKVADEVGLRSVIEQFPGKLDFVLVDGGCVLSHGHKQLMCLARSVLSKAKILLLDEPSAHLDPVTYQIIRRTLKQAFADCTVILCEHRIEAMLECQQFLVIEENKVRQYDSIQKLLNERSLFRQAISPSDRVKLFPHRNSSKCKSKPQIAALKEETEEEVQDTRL

delF508-CFTR, sequence (P13569 with tags, fused parts or gaps DEL508-508): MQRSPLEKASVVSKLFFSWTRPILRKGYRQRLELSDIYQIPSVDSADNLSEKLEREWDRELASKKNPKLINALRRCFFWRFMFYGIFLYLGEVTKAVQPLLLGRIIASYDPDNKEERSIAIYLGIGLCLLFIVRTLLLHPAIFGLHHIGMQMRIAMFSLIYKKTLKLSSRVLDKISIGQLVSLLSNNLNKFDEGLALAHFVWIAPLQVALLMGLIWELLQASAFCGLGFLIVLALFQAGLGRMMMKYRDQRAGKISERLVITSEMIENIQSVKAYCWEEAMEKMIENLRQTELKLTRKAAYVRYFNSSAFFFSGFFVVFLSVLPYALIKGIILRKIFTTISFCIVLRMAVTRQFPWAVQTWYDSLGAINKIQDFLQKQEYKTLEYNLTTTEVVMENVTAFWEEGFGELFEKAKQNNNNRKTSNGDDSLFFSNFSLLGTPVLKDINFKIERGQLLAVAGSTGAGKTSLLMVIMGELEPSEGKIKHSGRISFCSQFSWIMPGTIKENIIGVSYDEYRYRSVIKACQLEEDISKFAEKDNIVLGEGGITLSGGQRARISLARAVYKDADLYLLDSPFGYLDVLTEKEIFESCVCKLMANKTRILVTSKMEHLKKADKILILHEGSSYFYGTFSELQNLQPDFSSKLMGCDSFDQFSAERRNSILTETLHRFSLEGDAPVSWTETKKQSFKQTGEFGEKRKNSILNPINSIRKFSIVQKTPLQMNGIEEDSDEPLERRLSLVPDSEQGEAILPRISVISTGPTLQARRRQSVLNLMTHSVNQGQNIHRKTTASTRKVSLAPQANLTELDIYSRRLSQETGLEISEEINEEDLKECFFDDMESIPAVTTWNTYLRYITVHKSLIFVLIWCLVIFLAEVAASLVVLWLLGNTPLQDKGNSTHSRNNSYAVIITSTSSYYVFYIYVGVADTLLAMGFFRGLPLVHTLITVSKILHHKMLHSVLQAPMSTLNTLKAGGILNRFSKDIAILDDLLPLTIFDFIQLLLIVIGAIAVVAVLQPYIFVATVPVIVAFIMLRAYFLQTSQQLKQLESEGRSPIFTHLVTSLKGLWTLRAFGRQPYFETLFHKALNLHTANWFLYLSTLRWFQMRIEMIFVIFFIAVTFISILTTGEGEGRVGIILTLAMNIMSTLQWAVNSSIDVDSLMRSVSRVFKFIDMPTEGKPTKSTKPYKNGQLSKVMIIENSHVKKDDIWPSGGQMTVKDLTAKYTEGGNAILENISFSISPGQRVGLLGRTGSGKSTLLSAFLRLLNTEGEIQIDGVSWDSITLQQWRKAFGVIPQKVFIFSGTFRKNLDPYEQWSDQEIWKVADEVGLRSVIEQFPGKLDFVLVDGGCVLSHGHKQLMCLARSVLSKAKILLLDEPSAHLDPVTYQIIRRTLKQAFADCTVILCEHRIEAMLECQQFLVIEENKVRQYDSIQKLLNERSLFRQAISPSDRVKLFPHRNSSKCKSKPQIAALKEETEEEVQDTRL

Compound: CC(C)(C)c1cc(C(C)(C)C)c(NC(=O)c2c[nH]c3ccccc3c2=O)cc1O [VX-770, Ivacaftor, reference compound]
- fold increase of mean delF508-CFTR current (delF508-CFTR; 200 nM VX-770 alone): ~10 folds
- rundown of delF508-CFTR current in the presence of the compound (delF508-CFTR; real-time current trace, FIG. 10): immediately starts to decline
- increase of the Po of G551D-CFTR (G551D-CFTR; Jih et al., PNAS 2013): 8-10 folds
- function of G551D-CFTR relative to wild-type / normal (G551D-CFTR; with Ivacaftor, literature): < 10% and ~10%
